{"source": "patent US11938129B2", "about": "“Methods and compositions for the treatment of vascular disease” (THE GENERAL HOSPITAL CORPORATION, priority 2018, dated 2024)", "key": {"[1]": {"system": "aortic aneurysm in Fbn1C1039G/+ mice", "experiment": "experimental aortic aneurysm in Fbn1C1039G/+ mice: echocardiographic aortic dimensions", "format": "in vivo, mouse", "settings": "Fbn1C1039G/+ mice treated from two to six months of life, drinking water", "description": "Dimensions from each animal represent averages of measurements made on still frames in systole of the maximal internal diameter of the aortic valve annulus, aortic sinuses, sinotubular junction, or ascending aorta by a cardiologist blinded to genotype. The aorta was imaged using a standard parasternal long axis view. Based on historic controls, the mean diameter of the wild type aortic root at 4 months of life is 1.73+/-0.2 mm while in our disease model (Fbn1ci°[…]/+) the mean diameter is 2.15+/-0.3 mm. […] Nair hair removal cream was used on all mice the day prior to echocardiograms. All echocardiograms were performed on awake, unsedated mice using the Visualsonics Vevo imaging system and a 30 MHz transducer. All CT images were acquired using an Inveon small animal micro CT (Siemens Medical Solutions Inc., Malven, Pa.). All mice received intravenous iodinated contrast (Isovue-370, Bracco Diagnostic Inc.) at 20 pL/min during the scan. […] Images were visualized and analyzed in OsiriX software. Cohorts of 8-week-old wild-type or Fbn1cw3gGi+ mice were treated with oral administration in drinking water of either Losartan or GSK343 for 20 weeks (FIG. 5). […] Then 200 mL of drinking water was supplemented with 250 pL of GSK343 stock solution. […] Aortic dimensions were monitored monthly by echocardiograms as mentioned above."}, "[2]": {"system": "H3K27 methylation in HCC1806 cells", "settings": "read-out: IC50 for inhibition of H3K27 methylation; cited from earlier work"}, "FAK": {"system": "FAK", "experiment": "immunofluorescence of p-FAK in ligated carotid", "format": "in vivo, mouse", "settings": "media and intima of carotid arteries", "method": "(§1) All mice used in this study were cared for under strict compliance with the Partners Institutional Animal Care and Use Committee (IACUC), regulated by the United States Public Health Service (USPHS). Carotid ligations were performed in 10 week old mice. Briefly, animals were anesthetized using intraperitoneal ketamine/xylazine (80 and 12 mg/kg, respectively) followed by a small incision in the neck to expose the carotid artery. Then the left carotid was ligated at the carotid bifurcation level using a 8-0 silk suture. At 21 days mice were sacrificed and carotids were collected for histological analysis. Approximately 98% of wild type mice developed stenotic lesions. Mice that developed thrombosis of the ligated carotid were excluded from the study (−1¬2%). Malatl knockout mice were kindly provided by Dr. David Spector (Cold Spring Harbor, N.Y.). Hdac9 flox/flox/Talgn-cre mice were generated as previously reported (10). […]\n(§2) Left and right carotids were cryosectioned using OCT standard protocol and sectioning. […] Slides 1, 5, 10, and 15 were H&E stained for quantification of neointima. For quantification of the neointima, internal and external elastic lamina perimeters and medial thickness from 4 quadrants were measured and averaged using Image J software from the National Institutes of Health (NIH). […]"}, "Mmp9": {"system": "Mmp9", "experiment": "immunofluorescence of Mmp9 in ligated carotid", "format": "in vivo, mouse", "settings": "arterial media and intima of carotid arteries", "method": "as §1, §2"}, "[3]": {"system": "aortic wall of Fbn1C1039G/+ mice", "experiment": "histologic analysis of aortas of treated Fbn1C1039G/+ mice", "format": "in vivo, mouse", "settings": "aortas of Fbn1C1039G/+ mice treated from two to six months", "method": "(§3) Latex was injected into the left ventricular apex under low pressure until it was visible in the femoral artery. Animals were then fixed in Formalin (10%) for 24 hours before transfer to 70% ethanol for dissection and storage. Aortas were then removed from the animals or dissected in situ for photography prior to paraffinization and sectioning (10 pM). Slides were produced for tissue staining or stained with standard stains including H&E staining, collagen deposition (Trichrome Stain (Masson) Kit, Sigma, USA), elastin (Verhoeff-Van Gieson, Thermo Scientific, MI, USA) or F-actin (ActinGreen™ 488 ReadyProbes, ThermoFisher Scientific, USA) for quantitative analysis. Elastin integrity score was rated by blinded observers and graded on an arbitrary scale of 5 (indicating high quality elastic fiber) to 1 (indicating severe elastin fragmentation). For nuclear staining aortas from human and mice were cryosectioned using OCT standard protocol as described previously (Fischer et al., 2008). Cohorts of 8-week-old wild-type or Fbn1cw3gGi+ mice were treated with oral administration in drinking water of either Losartan or GSK343 for 20 weeks (FIG. 5). […] Then 200 mL of drinking water was supplemented with 250 pL of GSK343 stock solution. Control group for either drug treatment was given with equal volumes of sterile water. Bottles containing either losartan or GSKS343 were replaced with fresh water supplied with drugs every 3 days. For experiments described in FIG. 5A-5C, 16-week-old wild-type or Fbnicw3gGi+ mice were treated for 8 weeks and as described above. Additionally, a group of mice were given a combination of both losartan and GSK343 at the same concentrations as of other single drug treatments. Aortic dimensions were monitored monthly by echocardiograms as mentioned above."}, "H3K27me3": {"system": "H3K27me3", "experiment": "H3K27me3 staining in aortas of treated Fbn1C1039G/+ mice", "format": "in vivo, mouse", "settings": "compared to control or losartan treated mice", "method": "as §3, with “Control group for either drug treatment was given with equal volumes of sterile water. Bottles containing either losartan or GSKS343 were replaced with fresh water supplied with drugs every 3 days. For experiments described in FIG. 5A-5C, 16-week-old wild-type or Fbnicw3gGi+ mice were treated for 8 weeks and as described above. Additionally, a group of mice were given a combination of both losartan and GSK343 at the same concentrations as of other single drug treatments.” left out"}}, "note": "pIC50: −log10 of the molar value. “Also recorded” adds a separate entry of the source.", "data": [{"smiles": "CCCc1cc(C)[nH]c(=O)c1CNC(=O)c1cc(-c2ccnc(N3CCN(C)CC3)c2)cc2c1cnn2C(C)C", "note": "[GSK343]", "values": [{"measurement": "aortic dimensions", "setting": "[1]", "result": "ability to improve aortic dimensions"}, {"measurement": "pIC50", "setting": "[2]", "result": "> 6.70"}, {"measurement": "phosphorylation of FAK", "setting": "FAK", "result": "dramatic reduction"}, {"measurement": "accumulation of Mmp9", "setting": "Mmp9", "result": "decreased accumulation"}, {"measurement": "aortic architecture and filamentous actin content", "setting": "[3]", "result": "improvement"}, {"measurement": "elastin integrity", "setting": "[3]", "result": "not a significant improvement in elastin fiber integrity"}, {"measurement": "H3K27me3 staining / aortic medial H3K27me3 modifications", "setting": "H3K27me3", "result": "significant suppression of H3K27me3 staining; also recorded: significantly decreased"}]}]}
